From article PMC5978884, “Dissection of the antimicrobial and hemolytic activity of Cap18: Generation of Cap18 derivatives with enhanced specificity” (PLoS ONE, 2018)
Values after ≈ are worked out from the molar mass of the structure shown. Where two headings read alike, the source gives them in different places. Where no end group is shown, it is not given here.

Legend:
Type in all cases: cell-based
[1] = tested on: Aeromonas salmonicida ATCC33658; assay: microbe, parasite or virus in culture; settings: for MIC: Aeromonas salmonicida
Description: (§1) All strains were grown in Mueller-Hinton-II medium, except L. monocytogenes which was grown in BHI medium and L. lactis which was grown in MRS medium. Incubation took place aerobically at 37°C, except for Y. ruckeri and A. salmonicida, which were grown aerobically at RT (20 °C), and L. lactis grown aerobically at 30°C. All plates were incubated for 16–21 hours.
(§2) The minimum inhibitory concentrations (MICs) of the AMPs were measured in 96-well microtiter plates according the Clinical and Laboratory Standards Institute (CLSI, formerly National Committee for Clinical Laboratory Standards [NCCLS]). Briefly, liquid Mueller-Hinton-II medium containing increasing concentrations of AMPs is inoculated with a defined number of cells (approx. 10^5 CFUs/ml) in 96-well microtiter plates (polypropylene), whereas each plate also includes a positive growth control and a negative control (sterile control). The range of peptide concentrations analyzed was 0.125–64 μg/ml for the high purity peptides and 0.06–32 μg/ml for peptides of the variant library. After incubation, the MIC is determined by the lowest concentration showing no visible growth. All plates were incubated for 16–20 hours. The MIC of the reference antibiotics was determined by the use of Sensititre panels (Trek Diagnostic Systems Ltd, East Grinstead, UK).

[2] = tested on: Salmonella enterica serovar Typhimurium LT2; assay: microbe, parasite or virus in culture; settings: for MIC: Salmonella enterica, TYPHIMURIUM, read-out: MIC Salmonella Typhimurium LT2; for MIC S. Typhimurium / MIC S. Typhimurium LT2: LT2
Description: as §1, §2

[3] = tested on: Yersinia ruckeri 392/2003; assay: microbe, parasite or virus in culture; settings: for MIC: Yersinia ruckeri, 392/2003, read-out: MIC Yersinia ruckeri 392/2003
Description: as §1, §2

[4] = tested on: Lactococcus lactis IL1403
Description: as §1, §2

[5] = tested on: Enterococcus faecalis ATCC29212
Description: as §1, §2

[6] = tested on: Escherichia coli ATCC25922
Description: as §1, §2

[7] = tested on: Listeria monocytogenes N22-2
Description: as §1, §2

[8] = tested on: Pseudomonas aeruginosa ATCC27853
Description: as §1, §2

[9] = standard antibiotics, Sensititre panels, triplicates, ≤ = sensitive to lowest concentration in plate
[10] = ATCC33658, read-out: MIC Aermononas salmonicida ATCC33658

Row | Compound | MIC A. salmonicida ([1]; ATCC33658) [µg/mL] | MIC S. Typhimurium [2] [µg/mL] | MIC A. salmonicida ATCC33658 ([1]; ATCC33658) [µg/mL] | MIC S. Typhimurium LT2 [2] [µg/mL] | MIC Y. ruckeri 392/2003 [3] [µg/mL] | MIC E. faecalis ATCC29212 [5] [µg/mL] | MIC E. coli ATCC25922 [6] [µg/mL] | MIC L. lactis IL1403 [4] [µg/mL] | MIC L. monocytogenes N22-2 [7] [µg/mL] | MIC P. aeruginosa ATCC27853 [8] [µg/mL] | MIC Y. ruckeri [3] [µg/mL] | other results
1 | CC1(C)S[C@@H]2[C@H](NC(=O)[C@H](N)c3ccccc3)C(=O)N2[C@H]1C(=O)O [Ampicillin, reference compound] |  |  |  |  |  |  |  |  |  |  |  | MIC ([1]; ATCC33658, standard antibiotics, Sensititre panels, triplicates, ≤ = sensitive to lowest concentration in plate, read-out: MIC Aermononas salmonicida ATCC33658): ≤ 1 µg/mL; MIC [2, 9]: ≤ 1 µg/mL; MIC [3]: 2 µg/mL (≈ 5.72 µM)
2 | CNC(C)C1CCC(N)C(OC2C(N)CC(N)C(OC3OCC(C)(O)C(NC)C3O)C2O)O1 (centres unmarked) [Gentamicin, reference compound] |  |  |  |  |  |  |  |  |  |  |  | MIC [1, 10]: 1 µg/mL (≈ 2.09 µM); MIC [2]: 0.5 to 1 µg/mL (≈ 1.05 to 2.09 µM); MIC [3]: 1 to 2 µg/mL (≈ 2.09 to 4.19 µM)
3 | CCn1cc(C(=O)O)c(=O)c2ccc(C)nc21 [Nalidixic acid, reference compound] |  |  |  |  |  |  |  |  |  |  |  | MIC [1, 10]: ≤ 4 µg/mL; MIC [2]: ≤ 4 µg/mL; MIC [3]: 32 µg/mL (≈ 138 µM)
4 | GLRKRDRKFRNKIKEKLKKIGQKIQGLLPKLAPRTDY [Peptide L6D] | 16 | 8 |  |  |  |  |  |  |  |  |  | MIC L. lactis [4]: 16 µg/mL
5 | GLRKRLRKFRNKFKEKLKKIGQKIQGLLPKLAPRTDY [Peptide 4] |  |  | 4 | 4 | 2 | 8 to 16 | 4 to 8 | 2 | 4 | 4 to 8 |  | 
6 | GLRKRLRKFRNKHKEKLKKIGQKIQGLLPKLAPRTDY [Peptide 5] | 4 | 8 | 2 to 4 | 4 | 8 to 16 | ≥64 | 4 | ≥64 | 32 | 8 to 16 | 8 | 
7 | GLRKRLRKFRNKIKECLKKIGQKIQGLLPKLAPRTDY [Peptide 9] | 4 | 8 | 8 | 8 to 16 | 8 to 16 | 32 | 8 | ≥64 | 16 | 16 to 32 | 2 | 
8 | GLRKRLRKFRNKIKEDLKKIGQKIQGLLPKLAPRTDY [Peptide 10] |  |  | 2 to 4 | 4 | 4 | 32 | 4 to 8 | 2 | 4 to 8 | 16 to 32 |  | 
9 | GLRKRLRKFRNKIKEFLKKIGQKIQGLLPKLAPRTDY [Peptide 11] | 4 | 8 | 16 to 32 | 16 | 16 to 32 | 16 | 16 | ≥64 | 16 | 32 | 4 | 
10 | GLRKRLRKFRNKIKEILKKIGQKIQGLLPKLAPRTDY [Peptide 12] | 4 | 4 | 8 to 16 | 16 | 16 | 16 | 16 | ≥64 | 8 to 16 | 16 | 4 | 
11 | GLRKRLRKFRNKIKEKCKKIGQKIQGLLPKLAPRTDY [Peptide L17C] | 8 | 8 |  |  |  |  |  |  |  |  |  | 
12 | GLRKRLRKFRNKIKEKHKKIGQKIQGLLPKLAPRTDY [Peptide L17H] | 8 | 8 |  |  |  |  |  |  |  |  |  | 
13 | GLRKRLRKFRNKIKEKKKKIGQKIQGLLPKLAPRTDY [Peptide 17] | 4 | 4 | 16 to 32 | 16 | ≥64 | ≥64 | ≥64 | ≥64 | 16 to 32 | 8 |  | 
14 | GLRKRLRKFRNKIKEKLKKEGQKIQGLLPKLAPRTDY [Peptide 20] | 8 | 4 | 16 | 8 | 32 | ≥64 | ≥64 | 32 | 32 | 16 | 16 | 
15 | GLRKRLRKFRNKIKEKLKKHGQKIQGLLPKLAPRTDY [Peptide 21] | 2 | 2 | 4 | 8 | 16 | ≥64 | 32 | 32 | 16 | 8 | 8 | 
16 | GLRKRLRKFRNKIKEKLKKICQKIQGLLPKLAPRTDY [Peptide 23] | 4 | 8 | 16 to 32 | 16 | 16 | 32 | 16 | ≥64 | 16 | 32 | 4 | 
17 | GLRKRLRKFRNKIKEKLKKIGQKCQGLLPKLAPRTDY [Peptide 25] | 4 | 4 | 4 to 8 | 8 to 16 | 16 | 64 | 16 | ≥64 | 16 | 16 | 4 | 
18 | GLRKRLRKFRNKIKEKLKKIGQKHQGLLPKLAPRTDY [Peptide I24H] | 8 | 8 |  |  |  |  |  |  |  |  |  | 
19 | GLRKRLRKFRNKIKEKLKKIGQKIQGLLPKCAPRTDY [Peptide L31C] | 4 |  |  |  |  |  |  |  |  |  | 4 | MIC L. lactis [4]: 8 µg/mL
20 | GLRKRLRKFRNKIKEKLKKIGQKIQGLLPKLAPRHDY [Peptide T35H] | 2 |  |  |  |  |  |  |  |  |  | 2 | MIC L. lactis [4]: 8 µg/mL
21 | GLRKRLRKFRNKIKEKLKKIGQKIQGLLPKLAPRTDD [Peptide Y37D] | 2 |  |  |  |  |  |  |  |  |  | 2 | MIC L. lactis [4]: 8 µg/mL
22 | GLRKRLRKFRNKIKEKLKKIIQKIQGLLPKLAPRTDY [Peptide G21I] | 8 | 8 |  |  |  |  |  |  |  |  | 8 | 
23 | GLRKRLRKFRNKIKEKLKKQGQKIQGLLPKLAPRTDY [Peptide I20Q] | 8 | 8 |  |  |  |  |  |  |  |  | 8 | 
24 | GLRKRLRKFRNKIKEKLKKRGQKIQGLLPKLAPRTDY [Peptide I20R] | 16 | 8 |  |  |  |  |  |  |  |  | 16 | 
25 | GLRKRLRKFRNKNKEKLKKIGQKIQGLLPKLAPRTDY [Peptide I13N] | 8 | 8 |  |  |  |  |  |  |  |  |  | 
26 | GLRKRRRKFRNKIKEKLKKIGQKIQGLLPKLAPRTDY [Peptide L6R] | 16 | 8 |  |  |  |  |  |  |  |  | 16 | 
27 | Polymyxin E [reference compound] |  |  |  |  |  |  |  |  |  |  |  | MIC Aermononas salmonicida ATCC33658 [1, 9]: 2 µg/mL; MIC Salmonella Typhimurium LT2 [2, 9]: 2 µg/mL; MIC Yersinia ruckeri 392/2003 ([3]; standard antibiotics, Sensititre panels, triplicates): 1 to 2 µg/mL
